Data from ChEMBL document CHEMBL1154798, “Aminocaprophenone- and pyrrolidine-type alkaloids from the leaves of Ficus septica” (J Nat Prod, 2009).

Key:
HeLa = experiment: Cytotoxicity against human HeLa cells after 48 hrs by WST8 colorimetric assay; type: functional, cell-based
[1] = Cytotoxicity against human ACC-MESO1 cells after 48 hrs by WST8 colorimetric assay; type: functional, cell-based; conditions: ACC-MESO-1, 48 h

| SMILES | IC50 (HeLa) | IC50 [1] |
| --- | --- | --- |
| COc1ccc(C2=C(c3ccc(OC)c(OC)c3)CN3CCC[C@@H]3C2)cc1OC [SEPTICINE] | 38 µM | 63 µM |
| COc1cc2c3c(c4ccc(OC)c(OC)c4c2cc1OC)[C@H](O)[C@@H]1CCC[N+]1([O-])C3 (stereo partly specified) | 7.1 µM | 28 µM |
| CC(=O)c1ccc(O)c(O[C@@H]2O[C@H](CO)[C@@H](O)[C@H](O)[C@H]2O)c1 [PUNGENIN] | > 160 µM | > 160 µM |
| COc1cc(C(=O)CC2CCCN2C)ccc1O (stereo unspecified) [PHYLLOSTERONE] | > 160 µM | > 160 µM |
| COc1cc(C(=O)CCCCCN(C)C)ccc1O [FICUSEPTAMINE A] | 57 µM | 160 µM |
| COc1cc(C(=O)CC2CCC[N+]2(C)C)ccc1O (stereo unspecified) [FICUSEPTAMINE C] | > 160 µM | > 160 µM |
| COc1cc2c3c(c4cc(OC)c(OC)cc4c2cc1OC)CN1CCC[C@@H]1C3 [TYLOPHORINE] | 3.1 µM | 12 µM |
| COc1ccc(C(=O)CCCCCN(C)C)cc1O [FICUSEPTAMINE B] | 23 µM | 72 µM |
